Measurements from ChEMBL document CHEMBL4359841, “Late-Stage Functionalization of Platensimycin Leading to Multiple Analogues with Improved Antibacterial Activity in Vitro and in Vivo” (2019).
Converted amounts (≈) assume the structure as drawn. The source made the active and inactive calls. Unless noted, the calls are words filed in the database; no cut-off is given here.

Columns and labels:
Staphylococcus aureus [1] = assay: Inhibition of FabB/FabF in methicillin-resistant Staphylococcus aureus assessed as antibacterial activity at 5 ug/disk after 18 hrs by agar disk diffusion method
Staphylococcus aureus [2] = assay: Inhibition of FabB/FabF in Staphylococcus aureus ATCC 29213 assessed as antibacterial activity after 16 hrs by agar dilution method
Staphylococcus aureus [3] = assay: Inhibition of FabB/FabF in methicillin-resistant Staphylococcus aureus assessed as antibacterial activity after 16 hrs by agar dilution method
Staphylococcus aureus [4] = assay: Inhibition of FabB/FabF in methicillin-resistant Staphylococcus aureus 2951 clinical isolate assessed as antibacterial activity after 16 hrs by agar dilution method
Staphylococcus aureus [5] = assay: Inhibition of FabB/FabF in methicillin-resistant Staphylococcus aureus 2953 clinical isolate assessed as antibacterial activity after 16 hrs by agar dilution method
Staphylococcus aureus [6] = assay: Inhibition of FabB/FabF in methicillin-resistant Staphylococcus aureus 2957 clinical isolate assessed as antibacterial activity after 16 hrs by agar dilution method
Staphylococcus aureus [7] = assay: Inhibition of FabB/FabF in methicillin-resistant Staphylococcus aureus 2959 clinical isolate assessed as antibacterial activity after 16 hrs by agar dilution method
Staphylococcus aureus [8] = assay: Inhibition of FabB/FabF in methicillin-resistant Staphylococcus aureus 2968 clinical isolate assessed as antibacterial activity after 16 hrs by agar dilution method
Staphylococcus aureus [9] = assay: Inhibition of FabB/FabF in methicillin-resistant Staphylococcus aureus 2976 clinical isolate assessed as antibacterial activity after 16 hrs by agar dilution method
Staphylococcus aureus [10] = assay: Inhibition of FabB/FabF in methicillin-resistant Staphylococcus aureus 2980 clinical isolate assessed as antibacterial activity after 16 hrs by agar dilution method
Staphylococcus aureus [11] = assay: Inhibition of FabB/FabF in methicillin-resistant Staphylococcus aureus 2984 clinical isolate assessed as antibacterial activity after 16 hrs by agar dilution method
Staphylococcus aureus [12] = assay: Inhibition of FabB/FabF in methicillin-resistant Staphylococcus aureus 3046 clinical isolate assessed as antibacterial activity after 16 hrs by agar dilution method
Staphylococcus aureus [13] = assay: Inhibition of FabB/FabF in methicillin-resistant Staphylococcus aureus 3065 clinical isolate assessed as antibacterial activity after 16 hrs by agar dilution method
Staphylococcus aureus [14] = assay: Inhibition of FabB/FabF in methicillin-resistant Staphylococcus aureus 3071 clinical isolate assessed as antibacterial activity after 16 hrs by agar dilution method
Staphylococcus aureus [15] = assay: Inhibition of FabB/FabF in methicillin-resistant Staphylococcus aureus 3074 clinical isolate assessed as antibacterial activity after 16 hrs by agar dilution method
Staphylococcus aureus [16] = assay: Inhibition of FabB/FabF in methicillin-resistant Staphylococcus aureus 3082 clinical isolate assessed as antibacterial activity after 16 hrs by agar dilution method
Staphylococcus aureus [17] = assay: Inhibition of FabB/FabF in methicillin-resistant Staphylococcus aureus 3086 clinical isolate assessed as antibacterial activity after 16 hrs by agar dilution method
Staphylococcus aureus [18] = assay: Inhibition of FabB/FabF in methicillin-resistant Staphylococcus aureus 3090 clinical isolate assessed as antibacterial activity after 16 hrs by agar dilution method
Staphylococcus aureus [19] = assay: Inhibition of FabB/FabF in methicillin-resistant Staphylococcus aureus 3093 clinical isolate assessed as antibacterial activity after 16 hrs by agar dilution method
Staphylococcus aureus [20] = assay: Inhibition of FabB/FabF in methicillin-resistant Staphylococcus aureus 3095 clinical isolate assessed as antibacterial activity after 16 hrs by agar dilution method
Staphylococcus aureus [21] = assay: Inhibition of FabB/FabF in methicillin-resistant Staphylococcus aureus 3100 clinical isolate assessed as antibacterial activity after 16 hrs by agar dilution method
Staphylococcus aureus [22] = assay: Inhibition of FabB/FabF in methicillin-resistant Staphylococcus aureus 3104 clinical isolate assessed as antibacterial activity after 16 hrs by agar dilution method
Staphylococcus aureus [23] = assay: Inhibition of FabB/FabF in methicillin-resistant Staphylococcus aureus 3105 clinical isolate assessed as antibacterial activity after 16 hrs by agar dilution method
Staphylococcus aureus [24] = assay: Inhibition of FabB/FabF in methicillin-resistant Staphylococcus aureus 3110 clinical isolate assessed as antibacterial activity after 16 hrs by agar dilution method
Staphylococcus aureus [25] = assay: Inhibition of FabB/FabF in methicillin-resistant Staphylococcus aureus 3111 clinical isolate assessed as antibacterial activity after 16 hrs by agar dilution method
Staphylococcus aureus [26] = assay: Inhibition of FabB/FabF in methicillin-resistant Staphylococcus aureus 3112 clinical isolate assessed as antibacterial activity after 16 hrs by agar dilution method
Staphylococcus aureus [27] = assay: Inhibition of FabB/FabF in methicillin-resistant Staphylococcus aureus 3114 clinical isolate assessed as antibacterial activity after 16 hrs by agar dilution method
Staphylococcus aureus [28] = assay: Inhibition of FabB/FabF in methicillin-resistant Staphylococcus aureus 3116 clinical isolate assessed as antibacterial activity after 16 hrs by agar dilution method
Staphylococcus aureus [29] = assay: Inhibition of FabB/FabF in methicillin-resistant Staphylococcus aureus 3140 clinical isolate assessed as antibacterial activity after 16 hrs by agar dilution method
Staphylococcus aureus [30] = assay: Inhibition of FabB/FabF in methicillin-resistant Staphylococcus aureus 3158 clinical isolate assessed as antibacterial activity after 16 hrs by agar dilution method
Staphylococcus aureus [31] = assay: Inhibition of FabB/FabF in methicillin-resistant Staphylococcus aureus 3161 clinical isolate assessed as antibacterial activity after 16 hrs by agar dilution method
Staphylococcus aureus [32] = assay: Inhibition of FabB/FabF in methicillin-resistant Staphylococcus aureus 3163 clinical isolate assessed as antibacterial activity after 16 hrs by agar dilution method
Staphylococcus aureus [33] = assay: Inhibition of FabB/FabF in methicillin-resistant Staphylococcus aureus 3181 clinical isolate assessed as antibacterial activity after 16 hrs by agar dilution method
Staphylococcus aureus [34] = assay: Inhibition of FabB/FabF in methicillin-resistant Staphylococcus aureus 3182 clinical isolate assessed as antibacterial activity after 16 hrs by agar dilution method
Staphylococcus aureus [35] = assay: Inhibition of FabB/FabF in methicillin-resistant Staphylococcus aureus 3188 clinical isolate assessed as antibacterial activity after 16 hrs by agar dilution method
Staphylococcus aureus [36] = assay: Inhibition of FabB/FabF in methicillin-resistant Staphylococcus aureus 3193 clinical isolate assessed as antibacterial activity after 16 hrs by agar dilution method
Staphylococcus aureus [37] = assay: Inhibition of FabB/FabF in methicillin-resistant Staphylococcus aureus 3196 clinical isolate assessed as antibacterial activity after 16 hrs by agar dilution method
Staphylococcus aureus [38] = assay: Inhibition of FabB/FabF in methicillin-sensitive Staphylococcus aureus 2954 clinical isolate assessed as antibacterial activity after 16 hrs by agar dilution method
Staphylococcus aureus [39] = assay: Inhibition of FabB/FabF in methicillin-sensitive Staphylococcus aureus 2955 clinical isolate assessed as antibacterial activity after 16 hrs by agar dilution method
Staphylococcus aureus [40] = assay: Inhibition of FabB/FabF in methicillin-resistant Staphylococcus aureus 2962 clinical isolate assessed as antibacterial activity after 16 hrs by agar dilution method
Staphylococcus aureus [41] = assay: Inhibition of FabB/FabF in methicillin-sensitive Staphylococcus aureus 2956 clinical isolate assessed as antibacterial activity after 16 hrs by agar dilution method

C[C@]12C[C@@]34C=C(SC5CCCCC5)C(=O)[C@@](C)(CCC(=O)Nc5c(O)ccc(C(=O)O)c5O)[C@@H]3[C@H](C[C@@H]1C4)O2
antibacterial activity (disk diffusion, qualitative) (Staphylococcus aureus [1]): Active
MIC (Staphylococcus aureus [2]): 0.5 µg/mL (≈ 0.9 µM)
MIC (Staphylococcus aureus [3]): 0.25 µg/mL (≈ 0.45 µM)
inhibition (Staphylococcus aureus [4]): Active
inhibition (Staphylococcus aureus [5]): Active
inhibition (Staphylococcus aureus [6]): Active
inhibition (Staphylococcus aureus [7]): Active
inhibition (Staphylococcus aureus [8]): Active
inhibition (Staphylococcus aureus [9]): Active
inhibition (Staphylococcus aureus [10]): Active
inhibition (Staphylococcus aureus [11]): Active
inhibition (Staphylococcus aureus [12]): Active
inhibition (Staphylococcus aureus [13]): Active
inhibition (Staphylococcus aureus [14]): Active
inhibition (Staphylococcus aureus [15]): Active
inhibition (Staphylococcus aureus [16]): Active
inhibition (Staphylococcus aureus [17]): Active
inhibition (Staphylococcus aureus [18]): Active
inhibition (Staphylococcus aureus [19]): Active
inhibition (Staphylococcus aureus [20]): Active
inhibition (Staphylococcus aureus [21]): Active
inhibition (Staphylococcus aureus [22]): Active
inhibition (Staphylococcus aureus [23]): Active
inhibition (Staphylococcus aureus [24]): Active
inhibition (Staphylococcus aureus [25]): Active
inhibition (Staphylococcus aureus [26]): Active
inhibition (Staphylococcus aureus [27]): Active
inhibition (Staphylococcus aureus [28]): Active
inhibition (Staphylococcus aureus [29]): Active
inhibition (Staphylococcus aureus [30]): Active
inhibition (Staphylococcus aureus [31]): Active
inhibition (Staphylococcus aureus [32]): Active
inhibition (Staphylococcus aureus [33]): Active
inhibition (Staphylococcus aureus [34]): Active
inhibition (Staphylococcus aureus [35]): Active
inhibition (Staphylococcus aureus [36]): Active
inhibition (Staphylococcus aureus [37]): Active
inhibition (Staphylococcus aureus [38]): Active
inhibition (Staphylococcus aureus [39]): Active
inhibition (Staphylococcus aureus [40]): Active
inhibition (Staphylococcus aureus [41]): Active

C[C@]12C[C@@]34C=CC(=O)[C@@](C)(CCC(=O)Nc5c(O)ccc(C(=O)O)c5O)[C@@H]3[C@H](C[C@@H]1C4)O2
antibacterial activity (disk diffusion, qualitative) (Staphylococcus aureus [1]): Active
MIC (Staphylococcus aureus [2]): 1 µg/mL (≈ 2.27 µM)
MIC (Staphylococcus aureus [3]): 0.5 µg/mL (≈ 1.13 µM)
MIC (Staphylococcus aureus [4]): 1 µg/mL (≈ 2.27 µM)
MIC (Staphylococcus aureus [5]): 1 µg/mL (≈ 2.27 µM)
MIC (Staphylococcus aureus [6]): 1 µg/mL (≈ 2.27 µM)
MIC (Staphylococcus aureus [7]): 1 µg/mL (≈ 2.27 µM)
MIC (Staphylococcus aureus [8]): 1 µg/mL (≈ 2.27 µM)
MIC (Staphylococcus aureus [9]): 1 µg/mL (≈ 2.27 µM)
MIC (Staphylococcus aureus [10]): 1 µg/mL (≈ 2.27 µM)
MIC (Staphylococcus aureus [11]): 1 µg/mL (≈ 2.27 µM)
MIC (Staphylococcus aureus [12]): 1 µg/mL (≈ 2.27 µM)
MIC (Staphylococcus aureus [13]): 1 µg/mL (≈ 2.27 µM)
MIC (Staphylococcus aureus [14]): 1 µg/mL (≈ 2.27 µM)
MIC (Staphylococcus aureus [15]): 1 µg/mL (≈ 2.27 µM)
MIC (Staphylococcus aureus [16]): 1 µg/mL (≈ 2.27 µM)
MIC (Staphylococcus aureus [17]): 1 µg/mL (≈ 2.27 µM)
MIC (Staphylococcus aureus [18]): 1 µg/mL (≈ 2.27 µM)
MIC (Staphylococcus aureus [19]): 1 µg/mL (≈ 2.27 µM)
MIC (Staphylococcus aureus [20]): 1 µg/mL (≈ 2.27 µM)
MIC (Staphylococcus aureus [21]): 1 µg/mL (≈ 2.27 µM)
MIC (Staphylococcus aureus [22]): 1 µg/mL (≈ 2.27 µM)
MIC (Staphylococcus aureus [23]): 1 µg/mL (≈ 2.27 µM)
MIC (Staphylococcus aureus [24]): 1 µg/mL (≈ 2.27 µM)
MIC (Staphylococcus aureus [25]): 1 µg/mL (≈ 2.27 µM)
MIC (Staphylococcus aureus [26]): 1 µg/mL (≈ 2.27 µM)
MIC (Staphylococcus aureus [27]): 1 µg/mL (≈ 2.27 µM)
MIC (Staphylococcus aureus [28]): 1 µg/mL (≈ 2.27 µM)
MIC (Staphylococcus aureus [29]): 1 µg/mL (≈ 2.27 µM)
MIC (Staphylococcus aureus [30]): 1 µg/mL (≈ 2.27 µM)
MIC (Staphylococcus aureus [31]): 1 µg/mL (≈ 2.27 µM)
MIC (Staphylococcus aureus [32]): 1 µg/mL (≈ 2.27 µM)
MIC (Staphylococcus aureus [33]): 1 µg/mL (≈ 2.27 µM)
MIC (Staphylococcus aureus [34]): 1 µg/mL (≈ 2.27 µM)
MIC (Staphylococcus aureus [35]): 1 µg/mL (≈ 2.27 µM)
MIC (Staphylococcus aureus [36]): 1 µg/mL (≈ 2.27 µM)
MIC (Staphylococcus aureus [37]): 1 µg/mL (≈ 2.27 µM)
MIC (Staphylococcus aureus [38]): 1 µg/mL (≈ 2.27 µM)
MIC (Staphylococcus aureus [39]): 1 µg/mL (≈ 2.27 µM)
MIC (Staphylococcus aureus [40]): 1 µg/mL (≈ 2.27 µM)
MIC (Staphylococcus aureus [41]): 1 µg/mL (≈ 2.27 µM)
